Reference: patent US20230358677A1, “Reversible Excited-State Photoacids and Photobases as Dynamic Fluorescence Sensors of Protonic Species” (California Institute of Technology, priority 2022, published 2023)

Columns and labels:
[1] = Acid-base titration of aqueous photoacid with absorption and steady-state photoluminescence detection (Henderson-Hasselbalch / Stern-Volmer fits, OH− as quencher)
Text: FIGS. 2A through 2C illustrate acid-base titration of an aqueous solution of NS—NH2 photoacid with absorption and photoluminescence detection in accordance with an embodiment.
where aOH− is the activity of OH^−(aq), K*b pseudo is an erroneous observed equilibrium constant for base dissociation and KSV,OH− is the Stern-Volmer quenching constant, which is strictly dimensionless but reported here in units of M^−1 to be consistent with its typical usage. Unlike the Henderson-Hasselbalch equation, the Stern-Volmer equation is also applicable to non-equilibrium processes.
and KSV,OH−=k+q,OH−τo,PAH*, where τ is the excited-state lifetime (s) of NS—NH2* in the absence (τo,PAH*) or presence (τPAH*) of OH^− quencher and k+q,OH− is the bimolecular rate constant (M^−1 s^−1) for quenching of NS—NH2* by OH^− (forward direction of Reaction 1 with B=OH^−(aq)).
Several embodiments use the steady-state ultraviolet-visible electronic absorption and photoluminescence spectroscopy for characterization. Equal amounts of aromatic amine photoacids are portioned into five separate 100 mL volumetric flasks. For the non-proton-accepting quencher experiments, the five flasks are filled to the volumetric marker with aqueous solutions of 1 M HCl, 1 M KOH, 2 M KOH, 3 M KOH, and 4 M KOH. The aqueous 1 M KOH solution is titrated with the aqueous 1 M HCl solution to reach the desired pH values from 14 to 6, and the H^+ activities are measured using a pH meter (pH/Ion 510). […] Electronic absorption spectra and photoluminescence spectra are acquired using absorbance and fluorescence spectrometer(s), using a square-bottom quartz cuvette (1 cm path length) at room temperature. Electronic absorption spectra are baselined on a spectrum of deionized water and were corrected for scattering of light. Photoluminescence spectra are recorded by exciting with 310 nm light, slit widths for the excitation and emission monochromators were set to 5 nm, and the PMT detector voltage is set to 600 V. Photoluminescence spectra are corrected for changes in solution refractive index, inner filter effects and the wavelength-dependent correction factor of the fluorimeter. For experiments that use non-OH^− proton-accepting quenchers, equal amounts of the quencher are added to the dry volumetric flask intended to form the acidic and basic aqueous photoacid solutions, to prevent changes in total quencher concentration during the titration, and titrations are performed similarly to those in the absence of added proton-accepting quenchers. Although the total quencher concentration is kept constant throughout the titration, the activity of the deprotonated quencher species varied as a function of solution pH according to Equation 3. Ionic strength is matched at the most alkaline pH values; however, it is experimentally difficult to maintain the same ionic strength throughout the titration. Normalized photoluminescence intensities as a function of solution pH are obtained by dividing the corrected photoluminescence intensities at the wavelength of maximum photoluminescence to the maximum corrected photoluminescence intensity at the same wavelength.

[2] = Marcus-Cohen bond-energy-bond-order (BEBO) analysis of quenching rate constants; assay type: physicochemical
Text: Several embodiments provide accurate quantification of excited-state Brønsted-Lowry acidity and reorganization energy of weak photoacids using Marcus-Cohen bond-energy-bond-order (BEBO) theory. Data for this series of proton-accepting quenchers analyze the dependence of driving force on ESPT quenching rate constants and assess the validity of Marcus normal region behavior, as has been performed numerous times for excited-state electron transfer and proton-coupled electron transfer. Like excited-state electron-transfer quenching in polar solvents, ESPT is proposed to proceed through formation of an excited-state encounter complex between reactants prior to proton transfer, but unique to ESPT is dissociation of an excited-state encounter complex between products after proton transfer. […]
where ΔGEC,R^o, ΔGPT^oand −ΔGEC,P^o are the standard Gibbs free energy differences for the individual reaction steps in the excited-state proton-transfer reaction sequence. Kinetic data (Equation 8) and thermodynamic data (Equation 11) are analyzed using Marcus-Cohen bond-energy-bond-order (BEBO) theory, which is based on transition-state theory and results in the following relationship between ΔGPT^‡ and ΔGPT^o, […]

[3] = Acid-base titrations of NS—NH2 in the presence of proton-accepting quenchers (modified Stern-Volmer, Equation 7); details: for KSV,OH−: Equation 7; for pKa: pKa,BH+ (Equation 7)
Text: Assuming that photoluminescence quenching occurs by ESPT from NS—NH2* to OH^−(aq), the data support that when aOH− is small (i.e. at pH less than about 12), ESPT can be quite slow compared to the excited-state lifetime of NS—NH2*, due to mass action (FIG. 2B). The non-unity quantum yield for ESPT in weakly alkaline aqueous solutions afforded us an opportunity to evaluate a series of aqueous proton-accepting quenchers (glycine (Gly(aq)), proline (Pro(aq)), and trifluoroethanol (TFE(aq))) for their ability to undergo ESPT with NS—NH2*. In order to clearly observe ESPT to a species other than OH^−(aq), added proton-accepting quenchers had to be more basic (ΔG^o<0), or slightly more acidic (ΔG^o>0), than NS—NH2*, and less basic than OH^−(aq). […] As pH values approach and pass the pKa of the proton-accepting quencher, the rate of ESPT slows from a decrease in the concentration of proton-accepting quencher due to its protonation. This is supported by observations from analogous experiments performed using different concentrations of quencher. Best fits of measured photoluminescence spectroscopy data to a modified Stern-Volmer equation for a two-quencher system, including both OH^−(aq) and proton-accepting quencher, provided bimolecular rate constants for deprotonation of the photoacid by each quencher,
where KSV,OH−=K*^−1b and KSV,quencher=k+q,quencherτo,PAH* are the dynamic quenching constants for excited-state proton transfer to OH^−(aq) and proton-accepting quencher, respectively, k+q,quencher is the bimolecular rate constant (M^−1 s^−1) for ESPT quenching by the proton-accepting quencher, and the sum of the activities of B and BH^+ is approximated as the total concentration of the proton-accepting quencher. While the pKa of the proton-accepting quencher is an adjustable parameter during best fitting, extracted pKa values are close to pKa values obtained from the acid-base titration curves of the proton-accepting quenchers. Changing the proton-accepting quencher to one with a smaller pKa value results in a slower non-diffusion-limited rate constant for ESPT with NS—NH2*. The observation of ESPT directly from NS—NH2* to each of two different amino acids, Gly and Pro, is notable, and may have important implications for biological systems where direct protonation of proteins can induce cellular responses.
Table 2 lists driving-force-dependent rate constants for direct excited-state proton transfer from NS—NH2* to various proton-accepting quenchers.
Several embodiments use the steady-state ultraviolet-visible electronic absorption and photoluminescence spectroscopy for characterization. Equal amounts of aromatic amine photoacids are portioned into five separate 100 mL volumetric flasks. For the non-proton-accepting quencher experiments, the five flasks are filled to the volumetric marker with aqueous solutions of 1 M HCl, 1 M KOH, 2 M KOH, 3 M KOH, and 4 M KOH. The aqueous 1 M KOH solution is titrated with the aqueous 1 M HCl solution to reach the desired pH values from 14 to 6, and the H^+ activities are measured using a pH meter (pH/Ion 510). […] Electronic absorption spectra and photoluminescence spectra are acquired using absorbance and fluorescence spectrometer(s), using a square-bottom quartz cuvette (1 cm path length) at room temperature. Electronic absorption spectra are baselined on a spectrum of deionized water and were corrected for scattering of light. Photoluminescence spectra are recorded by exciting with 310 nm light, slit widths for the excitation and emission monochromators were set to 5 nm, and the PMT detector voltage is set to 600 V. Photoluminescence spectra are corrected for changes in solution refractive index, inner filter effects and the wavelength-dependent correction factor of the fluorimeter.

[4] = proton acceptor, aqueous; cited from earlier work
[5] = cited from earlier work
[6] = cited from earlier work; remark: listed apart in the source
[7] = Stability of dye fluorescence near an operating gas diffusion electrode
[8] = 1 M total trifluoroethanol present
[9] = quenching of NS—NH2*, 1 M total quencher

Nc1cccc2c(S(=O)(=O)[O-])cccc12.[Na+] [NS—NH2, 5-aminonaphthalene-1-sulfonic acid sodium salt]
pKa ([1]; aqueous solution, ground-state pKa, aromatic amine, aqueous): > 17
KSV,τ,OH− (linearized Stern-Volmer) ([1]; lifetime data, linearized Stern-Volmer fit, OH−(aq) quencher): about 55±1 M^−1
KSV,τ,OH− ([1]; lifetime data, non-linear Stern-Volmer fit, OH−(aq) quencher): about 54±6 M^−1
bimolecular rate constant k+q,τ,OH− ([1]; lifetime data, forward direction of Reaction 1 with B=OH−(aq)): about (12±1)×10^9 M^−1 s^−1
KSV,ss,OH− ([1]; steady-state photoluminescence, non-linear Stern-Volmer fit, OH−(aq) quencher): about 47±1 M^−1
KSV,ss,OH− (linearized Stern-Volmer) ([1]; steady-state photoluminescence, traditional linearized Stern-Volmer fit, OH−(aq) quencher): about 46±1 M^−1
ΔGo,PT‡ ([2]; Gibbs free energy of activation of proton-transfer step at ΔGPT°=0): 0.080±0.005 eV
“true” pK*a ([2]; Marcus-Cohen BEBO analysis): 11.7±0.1
bimolecular rate constant, deprotonation of NS—NH2* by OH−(aq) ([3]; 0.17 M total phosphate present): (163±8)×10^8 M^−1 s^−1
bimolecular rate constant, deprotonation of NS—NH2* by OH−(aq) ([3]; 1 M total glycine present): (43±1)×10^8 M^−1 s^−1
bimolecular rate constant, deprotonation of NS—NH2* by OH−(aq) ([3]; 1 M total proline present): (47±2)×10^8 M^−1 s^−1
bimolecular rate constant, deprotonation of NS—NH2* by OH−(aq) [3, 8]: (60±30)×10^8 M^−1 s^−1
bimolecular rate constant, deprotonation of NS—NH2* by OH−(aq) ([3]; 2 M total glycine present): (38±2)×10^8 M^−1 s^−1
KSV,OH− ([3]; 0.17 M total phosphate present): 37 ± 2 M⁻¹
KSV,OH− ([3]; 1 M total glycine present): 20 ± 1 M⁻¹
KSV,OH− ([3]; 1 M total proline present): 22 ± 1 M⁻¹
KSV,OH− [3, 8]: 30 ± 10 M⁻¹
KSV,OH− ([3]; 2 M total glycine present): 8.6 ± 0.4 M⁻¹

O=C(O)[C@@H]1CCCN1 [Proline]
bimolecular rate constant, deprotonation of NS—NH2* by the quencher ([3]; 1 M total quencher): (1.70±0.05)×10^8 M^−1 s^−1
k+q,corr ([3]; corrected rate constant, ESPT from NS—NH2* to the proton acceptor): 7.11 ± 0.21 10^8 M^−1 s^−1
k+q ([3]; direct excited-state proton transfer from NS—NH2* to the proton acceptor): 1.70 ± 0.05 10^8 M^−1 s^−1
pKa ([3]; value after the slash): 10.8
pKa ([3]; value before the slash): 10.7
KSV,quencher (Equation 7) [3, 9]: 0.80 ± 0.02 M⁻¹
KSV,quencher (traditional linearized Stern-Volmer) [3, 9]: 0.79 ± 0.01 M⁻¹
Diffusion Coefficient [4]: 8.79 10^−6 cm^2/s
pKa (physchem): 10.8
pKa, literature value [5]: 10.5

Oc1ccc2ccc3cccc4ccc1c2c34 [1-hydroxypyrene]
ground state pKa [6]: about 9

O=S(=O)(O)c1cc(S(=O)(=O)O)c2ccc3c(O)cc(O)c4ccc1c2c43 [DHPDS, 6,8-dihydroxy-1,3-pyrenedisulfonic acid]
pK*a ([6]; strong photoacid): ≈ 0
fluorescent signal during GDE operation ([7]; cathodic current densities of 100 mA/cm^2 in magnitude, or larger): Some loss of fluorescent signal
photoluminescence intensity during GDE operation ([7]; current density between 0 and −20 mA/cm^2): no significant decrease in photoluminescence intensity
